Reference: the kinase profiling compilation of Christmann-Franck et al. (2016)
One block for each compound: values may come before it.

Tests used:
Experiment in all cases: KINOMEscan competition binding
Conditions in all cases: compound 10.0 µM
PRKAA1 (human) = PRKAA1 (human) (UniProt Q13131)
MAPK10 (human) = MAPK10 (human) (UniProt P53779)
CIT (human) = CIT (human) (UniProt O14578)
NTRK3 (human) = NTRK3 (human) (UniProt Q16288)
HCK (human) = HCK (human) (UniProt P08631)
[1] = system: ABL1 (human), P00519 [E255K]
FYN (human) = FYN (human) (UniProt P06241)
ABL2 (human) = ABL2 (human) (UniProt P42684)
CaMK1 (human) = CaMK1 (human) (UniProt Q14012)
CaMK1 (human), sequence (Q14012 whole entry, looked up): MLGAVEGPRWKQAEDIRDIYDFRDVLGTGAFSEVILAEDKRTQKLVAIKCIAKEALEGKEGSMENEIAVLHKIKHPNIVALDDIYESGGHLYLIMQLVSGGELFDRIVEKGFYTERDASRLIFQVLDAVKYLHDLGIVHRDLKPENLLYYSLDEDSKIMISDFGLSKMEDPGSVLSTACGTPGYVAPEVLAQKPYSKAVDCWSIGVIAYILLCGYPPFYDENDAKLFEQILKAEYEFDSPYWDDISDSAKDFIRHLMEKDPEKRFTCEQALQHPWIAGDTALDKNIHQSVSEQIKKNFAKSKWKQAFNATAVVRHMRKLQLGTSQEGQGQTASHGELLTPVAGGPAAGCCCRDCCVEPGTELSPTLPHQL

PTK2 (human) = PTK2 (human) (UniProt Q05397)
MAP4K3 (human) = MAP4K3 (human) (UniProt Q8IVH8)
SRMS (human) = SRMS (human) (UniProt Q9H3Y6)
CSF1R (human) = CSF1R (human) (UniProt P07333)
CSF1R (human), sequence (P07333 whole entry, looked up): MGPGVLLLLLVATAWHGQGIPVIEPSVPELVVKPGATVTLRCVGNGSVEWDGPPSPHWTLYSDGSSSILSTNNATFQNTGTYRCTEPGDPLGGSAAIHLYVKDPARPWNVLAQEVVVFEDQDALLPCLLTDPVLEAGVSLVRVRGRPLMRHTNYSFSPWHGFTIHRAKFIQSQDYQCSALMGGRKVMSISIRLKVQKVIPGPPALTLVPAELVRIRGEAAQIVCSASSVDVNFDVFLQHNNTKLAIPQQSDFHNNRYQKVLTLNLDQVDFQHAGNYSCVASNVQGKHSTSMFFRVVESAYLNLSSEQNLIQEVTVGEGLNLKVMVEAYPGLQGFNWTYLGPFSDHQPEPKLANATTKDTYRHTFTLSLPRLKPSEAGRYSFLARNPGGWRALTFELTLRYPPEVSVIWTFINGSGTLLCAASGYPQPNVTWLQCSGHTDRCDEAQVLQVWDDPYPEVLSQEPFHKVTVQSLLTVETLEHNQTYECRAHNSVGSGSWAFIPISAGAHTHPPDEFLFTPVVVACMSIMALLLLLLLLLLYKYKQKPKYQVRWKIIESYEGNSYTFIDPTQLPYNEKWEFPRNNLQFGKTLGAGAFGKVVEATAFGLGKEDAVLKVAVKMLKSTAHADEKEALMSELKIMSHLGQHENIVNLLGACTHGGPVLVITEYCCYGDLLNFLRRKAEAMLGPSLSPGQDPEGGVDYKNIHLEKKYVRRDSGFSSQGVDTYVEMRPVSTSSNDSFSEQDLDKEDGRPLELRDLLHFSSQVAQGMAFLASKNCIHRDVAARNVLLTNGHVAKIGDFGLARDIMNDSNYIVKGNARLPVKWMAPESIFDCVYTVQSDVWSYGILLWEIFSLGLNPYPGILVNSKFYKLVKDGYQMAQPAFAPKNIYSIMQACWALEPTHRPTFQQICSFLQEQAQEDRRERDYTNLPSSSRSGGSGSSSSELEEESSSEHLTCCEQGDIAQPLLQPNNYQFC

DAPK2 (human) = DAPK2 (human) (UniProt Q9UIK4)
DAPK2 (human), sequence (Q9UIK4 whole entry, looked up): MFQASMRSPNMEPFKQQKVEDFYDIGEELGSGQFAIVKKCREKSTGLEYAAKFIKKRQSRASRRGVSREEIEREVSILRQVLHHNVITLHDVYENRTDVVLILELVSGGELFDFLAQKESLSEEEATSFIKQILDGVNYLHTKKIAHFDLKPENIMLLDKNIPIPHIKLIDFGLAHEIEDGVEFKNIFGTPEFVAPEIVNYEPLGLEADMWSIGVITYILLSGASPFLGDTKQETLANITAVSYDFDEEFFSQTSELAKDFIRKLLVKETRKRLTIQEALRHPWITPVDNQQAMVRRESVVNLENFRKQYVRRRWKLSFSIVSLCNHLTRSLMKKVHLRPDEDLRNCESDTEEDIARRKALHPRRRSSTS

PKN1 (human) = PKN1 (human) (UniProt Q16512)
PKN1 (human), sequence (Q16512 whole entry, looked up): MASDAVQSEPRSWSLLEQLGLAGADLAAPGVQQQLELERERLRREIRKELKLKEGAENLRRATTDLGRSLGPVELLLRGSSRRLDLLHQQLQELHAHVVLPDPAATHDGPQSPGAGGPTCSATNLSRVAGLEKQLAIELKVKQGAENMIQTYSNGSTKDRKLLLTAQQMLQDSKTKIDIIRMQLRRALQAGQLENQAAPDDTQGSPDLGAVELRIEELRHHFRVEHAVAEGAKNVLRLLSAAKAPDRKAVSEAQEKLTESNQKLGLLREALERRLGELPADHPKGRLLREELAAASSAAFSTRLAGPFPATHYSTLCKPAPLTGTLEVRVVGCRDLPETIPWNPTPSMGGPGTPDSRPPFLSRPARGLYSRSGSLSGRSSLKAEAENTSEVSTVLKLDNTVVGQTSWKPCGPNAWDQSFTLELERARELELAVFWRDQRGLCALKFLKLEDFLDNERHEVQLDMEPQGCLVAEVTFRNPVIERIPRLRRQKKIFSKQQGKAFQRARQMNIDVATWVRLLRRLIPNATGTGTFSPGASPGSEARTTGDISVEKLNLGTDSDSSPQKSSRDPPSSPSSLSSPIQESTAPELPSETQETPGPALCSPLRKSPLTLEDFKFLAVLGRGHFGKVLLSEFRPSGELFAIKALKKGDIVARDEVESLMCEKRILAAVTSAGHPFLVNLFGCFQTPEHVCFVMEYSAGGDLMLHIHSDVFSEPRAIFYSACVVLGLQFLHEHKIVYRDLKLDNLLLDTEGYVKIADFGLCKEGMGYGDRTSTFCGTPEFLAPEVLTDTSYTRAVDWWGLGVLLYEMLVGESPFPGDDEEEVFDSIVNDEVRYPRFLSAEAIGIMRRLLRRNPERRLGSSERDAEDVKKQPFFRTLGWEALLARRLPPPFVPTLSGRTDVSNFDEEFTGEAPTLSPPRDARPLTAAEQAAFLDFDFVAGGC

MAPKAPK2 (human) = MAPKAPK2 (human) (UniProt P49137)
CAMK2D (human) = CAMK2D (human) (UniProt Q13557)
CAMK2D (human), sequence (Q13557 whole entry, looked up): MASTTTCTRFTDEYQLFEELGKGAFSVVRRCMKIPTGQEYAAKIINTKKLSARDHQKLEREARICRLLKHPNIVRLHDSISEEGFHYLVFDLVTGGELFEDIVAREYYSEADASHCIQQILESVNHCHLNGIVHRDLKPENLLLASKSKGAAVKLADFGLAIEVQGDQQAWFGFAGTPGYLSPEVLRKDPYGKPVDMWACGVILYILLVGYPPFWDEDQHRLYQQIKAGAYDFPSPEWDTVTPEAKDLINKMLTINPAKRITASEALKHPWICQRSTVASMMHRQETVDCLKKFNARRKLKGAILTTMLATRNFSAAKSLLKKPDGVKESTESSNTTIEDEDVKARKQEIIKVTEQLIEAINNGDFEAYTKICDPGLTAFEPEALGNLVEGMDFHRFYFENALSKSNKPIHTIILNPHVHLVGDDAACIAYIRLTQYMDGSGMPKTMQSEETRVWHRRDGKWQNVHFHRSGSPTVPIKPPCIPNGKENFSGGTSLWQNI

RPS6KA3 KD1 (human) = RPS6KA3 KD1 (human) (UniProt P51812)
MAP3K10 (human) = MAP3K10 (human) (UniProt Q02779)
CAMK2B (human) = CAMK2B (human) (UniProt Q13554)
RPS6KA2 KD1 (human) = RPS6KA2 KD1 (human) (UniProt Q15349)
RPS6KA2 KD1 (human), sequence (Q15349 whole entry, looked up): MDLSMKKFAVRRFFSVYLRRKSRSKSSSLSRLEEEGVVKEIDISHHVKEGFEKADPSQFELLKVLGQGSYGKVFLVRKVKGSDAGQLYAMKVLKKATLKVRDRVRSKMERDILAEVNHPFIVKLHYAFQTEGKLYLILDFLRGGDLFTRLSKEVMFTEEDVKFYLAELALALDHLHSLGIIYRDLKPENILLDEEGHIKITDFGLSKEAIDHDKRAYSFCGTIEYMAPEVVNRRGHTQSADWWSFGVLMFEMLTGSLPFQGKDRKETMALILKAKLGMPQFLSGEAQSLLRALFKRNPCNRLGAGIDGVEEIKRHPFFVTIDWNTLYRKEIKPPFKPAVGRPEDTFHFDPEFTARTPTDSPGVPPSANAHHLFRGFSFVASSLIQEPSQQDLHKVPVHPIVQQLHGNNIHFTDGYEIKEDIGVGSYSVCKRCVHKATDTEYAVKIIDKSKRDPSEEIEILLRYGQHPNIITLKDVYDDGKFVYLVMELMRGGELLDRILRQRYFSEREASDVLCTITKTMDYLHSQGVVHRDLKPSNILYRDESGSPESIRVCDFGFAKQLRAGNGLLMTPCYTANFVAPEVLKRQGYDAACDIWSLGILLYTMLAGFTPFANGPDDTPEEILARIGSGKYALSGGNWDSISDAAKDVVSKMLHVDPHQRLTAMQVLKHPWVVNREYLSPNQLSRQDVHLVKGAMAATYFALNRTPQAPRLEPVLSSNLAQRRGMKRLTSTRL

PRKCD (human) = PRKCD (human) (UniProt Q05655)
[2] = biological target: JAK1 JH1 catalytic (human) (UniProt P23458)
STK32C (human) = STK32C (human) (UniProt Q86UX6)
ITK (human) = ITK (human) (UniProt Q08881)
MAP2K4 (human) = MAP2K4 (human) (UniProt P45985)
EPHA5 (human) = EPHA5 (human) (UniProt P54756)
NTRK2 (human) = NTRK2 (human) (UniProt Q16620)
DAPK3 (human) = DAPK3 (human) (UniProt O43293)
PRKX (human) = PRKX (human) (UniProt P51817)
CSNK2A2 (human) = CSNK2A2 (human) (UniProt P19784)
PIP4K2B (human) = PIP4K2B (human) (UniProt P78356)
PRKCH (human) = PRKCH (human) (UniProt P24723)
MAP2K2 (human) = MAP2K2 (human) (UniProt P36507)
TNK2 (human) = TNK2 (human) (UniProt Q07912)
RPS6KA4 KD2 (human) = RPS6KA4 KD2 (human) (UniProt O75676)
PAK7 (human) = PAK7 (human) (UniProt Q9P286)
BRSK1 (human) = BRSK1 (human) (UniProt Q8TDC3)
PAK6 (human) = PAK6 (human) (UniProt Q9NQU5)
PIK3CA (human) = PIK3CA (human) (UniProt P42336)
[3] = biological target: TYK2 JH1 catalytic (human) (UniProt P29597)
TYK2 JH1 catalytic (human), sequence (P29597 whole entry, looked up): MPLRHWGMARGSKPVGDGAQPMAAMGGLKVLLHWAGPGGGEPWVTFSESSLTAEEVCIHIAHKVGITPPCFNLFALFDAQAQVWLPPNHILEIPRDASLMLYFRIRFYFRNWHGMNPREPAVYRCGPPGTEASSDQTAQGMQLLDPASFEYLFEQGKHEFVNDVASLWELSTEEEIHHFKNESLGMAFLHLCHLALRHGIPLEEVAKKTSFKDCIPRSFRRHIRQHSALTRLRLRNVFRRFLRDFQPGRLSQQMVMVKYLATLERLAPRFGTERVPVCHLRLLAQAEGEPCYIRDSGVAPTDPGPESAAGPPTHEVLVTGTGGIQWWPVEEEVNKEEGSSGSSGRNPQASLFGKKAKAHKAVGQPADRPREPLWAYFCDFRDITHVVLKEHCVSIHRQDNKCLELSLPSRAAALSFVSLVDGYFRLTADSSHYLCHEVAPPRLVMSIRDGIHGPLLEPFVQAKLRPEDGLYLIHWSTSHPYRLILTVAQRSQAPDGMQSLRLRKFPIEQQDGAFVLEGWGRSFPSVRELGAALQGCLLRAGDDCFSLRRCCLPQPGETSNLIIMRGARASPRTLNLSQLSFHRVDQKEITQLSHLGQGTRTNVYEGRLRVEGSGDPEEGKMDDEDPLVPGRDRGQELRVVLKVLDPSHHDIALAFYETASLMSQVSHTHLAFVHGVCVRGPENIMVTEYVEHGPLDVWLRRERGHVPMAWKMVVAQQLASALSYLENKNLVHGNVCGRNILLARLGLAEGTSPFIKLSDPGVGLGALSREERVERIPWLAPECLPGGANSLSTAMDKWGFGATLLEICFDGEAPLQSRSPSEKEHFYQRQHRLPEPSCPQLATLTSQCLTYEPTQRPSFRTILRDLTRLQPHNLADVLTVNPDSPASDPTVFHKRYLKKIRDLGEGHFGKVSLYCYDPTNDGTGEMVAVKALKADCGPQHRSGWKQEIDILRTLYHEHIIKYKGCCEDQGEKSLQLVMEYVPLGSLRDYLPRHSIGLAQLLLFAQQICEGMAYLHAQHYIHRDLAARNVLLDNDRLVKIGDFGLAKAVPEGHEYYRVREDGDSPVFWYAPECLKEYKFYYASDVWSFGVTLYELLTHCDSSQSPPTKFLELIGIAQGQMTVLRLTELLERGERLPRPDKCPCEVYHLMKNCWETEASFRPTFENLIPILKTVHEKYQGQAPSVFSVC

ZAP70 (human) = ZAP70 (human) (UniProt P43403)

- kinase still bound, per cent of control (PRKAA1 (human)): 33%
- kinase still bound, per cent of control (MAPK10 (human)): 12%
- kinase still bound, per cent of control (CIT (human)): 0.1%
- kinase still bound, per cent of control (NTRK3 (human)): 3.8%
- kinase still bound, per cent of control (HCK (human)): 0.4%
- kinase still bound, per cent of control [1]: 1.2%
- kinase still bound, per cent of control (FYN (human)): 1.6%
- kinase still bound, per cent of control (ABL2 (human)): 0.6%
- kinase still bound, per cent of control (CaMK1 (human)): 0%
- kinase still bound, per cent of control (PTK2 (human)): 23%
- kinase still bound, per cent of control (MAP4K3 (human)): 18%
- kinase still bound, per cent of control (SRMS (human)): 4.6%
- kinase still bound, per cent of control (CSF1R (human)): 0%
Compound: CCN1CCN(Cc2ccc(NC(=O)c3ccc(C)c(Oc4ccnc5[nH]ccc45)c3)cc2C(F)(F)F)CC1

Compound: CCOc1cc(N2CCC(N3CCCCC3)CC2)ccc1Nc1nc(Nc2ccccc2S(=O)(=O)C(C)C)c2cn[nH]c2n1
- kinase still bound, per cent of control (DAPK2 (human)): 64%
- kinase still bound, per cent of control (PRKAA1 (human)): 51%
- kinase still bound, per cent of control (MAPK10 (human)): 7.2%
- kinase still bound, per cent of control (PKN1 (human)): 100%
- kinase still bound, per cent of control (MAPKAPK2 (human)): 100%
- kinase still bound, per cent of control (CAMK2D (human)): 34%
- kinase still bound, per cent of control (RPS6KA3 KD1 (human)): 2%
- kinase still bound, per cent of control (MAP3K10 (human)): 100%
- kinase still bound, per cent of control (CIT (human)): 100%
- kinase still bound, per cent of control (CAMK2B (human)): 65%
- kinase still bound, per cent of control (NTRK3 (human)): 54%
- kinase still bound, per cent of control (RPS6KA2 KD1 (human)): 77%
- kinase still bound, per cent of control (PRKCD (human)): 100%
- kinase still bound, per cent of control [2]: 100%
- kinase still bound, per cent of control (STK32C (human)): 88%
- kinase still bound, per cent of control (ITK (human)): 40%
- kinase still bound, per cent of control (MAP2K4 (human)): 8.2%
- kinase still bound, per cent of control (EPHA5 (human)): 100%
- kinase still bound, per cent of control (NTRK2 (human)): 59%
- kinase still bound, per cent of control (DAPK3 (human)): 83%
- kinase still bound, per cent of control (PRKX (human)): 100%
- kinase still bound, per cent of control (CSNK2A2 (human)): 94%
- kinase still bound, per cent of control (HCK (human)): 100%
- kinase still bound, per cent of control (PIP4K2B (human)): 100%
- kinase still bound, per cent of control (PRKCH (human)): 100%
- kinase still bound, per cent of control (MAP2K2 (human)): 94%
- kinase still bound, per cent of control [1]: 67%
- kinase still bound, per cent of control (TNK2 (human)): 3.4%
- kinase still bound, per cent of control (FYN (human)): 100%
- kinase still bound, per cent of control (ABL2 (human)): 97%
- kinase still bound, per cent of control (RPS6KA4 KD2 (human)): 97%
- kinase still bound, per cent of control (CaMK1 (human)): 4.6%
- kinase still bound, per cent of control (PAK7 (human)): 80%
- kinase still bound, per cent of control (BRSK1 (human)): 100%
- kinase still bound, per cent of control (PAK6 (human)): 100%
- kinase still bound, per cent of control (PTK2 (human)): 0.2%
- kinase still bound, per cent of control (PIK3CA (human)): 99%
- kinase still bound, per cent of control (MAP4K3 (human)): 10%
- kinase still bound, per cent of control [3]: 87%
- kinase still bound, per cent of control (ZAP70 (human)): 32%
- kinase still bound, per cent of control (SRMS (human)): 27%
- kinase still bound, per cent of control (CSF1R (human)): 99%

- kinase still bound, per cent of control (DAPK2 (human)): 12%
- kinase still bound, per cent of control (PRKAA1 (human)): 0.1%
- kinase still bound, per cent of control (MAPK10 (human)): 2.6%
- kinase still bound, per cent of control (PKN1 (human)): 0.5%
- kinase still bound, per cent of control (MAPKAPK2 (human)): 40%
- kinase still bound, per cent of control (CAMK2D (human)): 4.1%
- kinase still bound, per cent of control (RPS6KA3 KD1 (human)): 0.55%
- kinase still bound, per cent of control (MAP3K10 (human)): 4.6%
- kinase still bound, per cent of control (CIT (human)): 40%
- kinase still bound, per cent of control (CAMK2B (human)): 5.8%
- kinase still bound, per cent of control (NTRK3 (human)): 40%
- kinase still bound, per cent of control (RPS6KA2 KD1 (human)): 0.05%
- kinase still bound, per cent of control (PRKCD (human)): 28%
- kinase still bound, per cent of control [2]: 4.7%
- kinase still bound, per cent of control (STK32C (human)): 3.1%
- kinase still bound, per cent of control (ITK (human)): 0.1%
- kinase still bound, per cent of control (MAP2K4 (human)): 1.6%
- kinase still bound, per cent of control (EPHA5 (human)): 21%
- kinase still bound, per cent of control (NTRK2 (human)): 8.4%
- kinase still bound, per cent of control (DAPK3 (human)): 4.5%
- kinase still bound, per cent of control (PRKX (human)): 28%
- kinase still bound, per cent of control (CSNK2A2 (human)): 40%
- kinase still bound, per cent of control (HCK (human)): 0.35%
- kinase still bound, per cent of control (PIP4K2B (human)): 11%
- kinase still bound, per cent of control (PRKCH (human)): 40%
- kinase still bound, per cent of control (MAP2K2 (human)): 1.8%
- kinase still bound, per cent of control [1]: 19%
- kinase still bound, per cent of control (TNK2 (human)): 0%
- kinase still bound, per cent of control (FYN (human)): 5.6%
- kinase still bound, per cent of control (ABL2 (human)): 1.4%
- kinase still bound, per cent of control (RPS6KA4 KD2 (human)): 40%
- kinase still bound, per cent of control (CaMK1 (human)): 1.4%
- kinase still bound, per cent of control (PAK7 (human)): 2.7%
- kinase still bound, per cent of control (BRSK1 (human)): 1.2%
- kinase still bound, per cent of control (PAK6 (human)): 13%
- kinase still bound, per cent of control (PTK2 (human)): 0%
- kinase still bound, per cent of control (PIK3CA (human)): 40%
- kinase still bound, per cent of control (MAP4K3 (human)): 2.5%
- kinase still bound, per cent of control [3]: 0.45%
- kinase still bound, per cent of control (ZAP70 (human)): 10%
- kinase still bound, per cent of control (SRMS (human)): 0%
- kinase still bound, per cent of control (CSF1R (human)): 0%
Compound: COc1cc(N2CCC(N3CCN(C)CC3)CC2)ccc1Nc1ncc(Cl)c(Nc2ccccc2S(=O)(=O)C(C)C)n1

Compound: CCN1CCN(Cc2ccc(NC(=O)c3ccc(C)c(/C=C/c4cnc(Nc5cc(N6CCNCC6)nc(C)n5)cn4)c3)cc2C(F)(F)F)CC1
- kinase still bound, per cent of control (DAPK2 (human)): 66%
- kinase still bound, per cent of control (PRKAA1 (human)): 18%
- kinase still bound, per cent of control (MAPK10 (human)): 54%
- kinase still bound, per cent of control (PKN1 (human)): 100%
- kinase still bound, per cent of control (MAPKAPK2 (human)): 100%
- kinase still bound, per cent of control (CAMK2D (human)): 100%
- kinase still bound, per cent of control (RPS6KA3 KD1 (human)): 43%
- kinase still bound, per cent of control (MAP3K10 (human)): 30%
- kinase still bound, per cent of control (CIT (human)): 0.2%
- kinase still bound, per cent of control (CAMK2B (human)): 92%
- kinase still bound, per cent of control (NTRK3 (human)): 1%
- kinase still bound, per cent of control (RPS6KA2 KD1 (human)): 69%
- kinase still bound, per cent of control (PRKCD (human)): 100%
- kinase still bound, per cent of control [2]: 80%
- kinase still bound, per cent of control (STK32C (human)): 96%
- kinase still bound, per cent of control (ITK (human)): 86%
- kinase still bound, per cent of control (MAP2K4 (human)): 100%
- kinase still bound, per cent of control (EPHA5 (human)): 20%
- kinase still bound, per cent of control (NTRK2 (human)): 1%
- kinase still bound, per cent of control (DAPK3 (human)): 91%
- kinase still bound, per cent of control (PRKX (human)): 100%
- kinase still bound, per cent of control (CSNK2A2 (human)): 72%
- kinase still bound, per cent of control (HCK (human)): 0.4%
- kinase still bound, per cent of control (PIP4K2B (human)): 83%
- kinase still bound, per cent of control (PRKCH (human)): 100%
- kinase still bound, per cent of control (MAP2K2 (human)): 11%
- kinase still bound, per cent of control [1]: 0.3%
- kinase still bound, per cent of control (TNK2 (human)): 32%
- kinase still bound, per cent of control (FYN (human)): 4.6%
- kinase still bound, per cent of control (ABL2 (human)): 0.7%
- kinase still bound, per cent of control (RPS6KA4 KD2 (human)): 43%
- kinase still bound, per cent of control (CaMK1 (human)): 90%
- kinase still bound, per cent of control (PAK7 (human)): 100%
- kinase still bound, per cent of control (BRSK1 (human)): 91%
- kinase still bound, per cent of control (PAK6 (human)): 91%
- kinase still bound, per cent of control (PTK2 (human)): 100%
- kinase still bound, per cent of control (PIK3CA (human)): 92%
- kinase still bound, per cent of control (MAP4K3 (human)): 0.9%
- kinase still bound, per cent of control [3]: 29%
- kinase still bound, per cent of control (ZAP70 (human)): 15%
- kinase still bound, per cent of control (SRMS (human)): 8.2%
- kinase still bound, per cent of control (CSF1R (human)): 1.1%
